Measured values reported in US7070778B2, “Therapeutical combination against cancer” (Laboratoire Goemar SA, priority 2003, dated 2006).

Tested on: BT-474 human breast carcinoma
Experiment: Effect on the tumor growth: BT-474 human breast carcinoma xenograft in nude mice
Format: in vivo
Conditions: for Average daily weight of the tumor: Group 6: Paclitaxel 16 mg/kg i.p. once a day for 5 days
Method: Female nude mice (nulnu) between 5 and 6 weeks of age weighing approximately 20 g were obtained from Harlan, Inc. (Madison, Wis.). The BT-474 human breast carcinoma cell line was obtained from the American Type Culture Collection (ATCC). BT-474 was established by E. Lasfargues and W. G. Coutinho from a solid carcinoma of the breast obtained from a patient (2). Twenty-one-day release 17β-estradiol pellets at 0.25 mg (Innovative Research of America) were implanted subcutaneously into each mouse. The following day, animals were implanted s.c. by trocar with fragments of human tumor carcinomas harvested from s.c. growing tumors in nude mice hosts. When the tumors were approximately 40 mg in size (24 days following inoculation), the animals were pair-matched into treatment and control groups. All of the groups contained 9 mice. All of the animals were ear-tagged and followed individually throughout the experiment.
The mice of each group were administered intra peritoneally with 2 ml of the following composition:
Group 1: (control) sterile H2O, 5 times a day
Mice were weighed twice weekly, and tumor measurements were obtained using calipers twice weekly, starting on Day 1. These tumor measurements were converted to mg tumor weight by the standard formula, (W^2×L)/2 (2). The experiment was terminated when the control group tumor size reached an average of 500 mg. Upon termination (Day 46), the mice were weighed, sacrificed and their tumors were excised. The tumors were weighed, and the mean tumor weight per group was calculated.
With this agent, the final weight of a given tumor was subtracted from its own weight at the start of treatment on Day 1. This difference was divided by the initial tumor weight to give the % regression. A mean % tumor regression was calculated from data from mice in a group that experienced tumor regressions.

## CC(=O)O[C@H]1C(=O)[C@@]2(C)[C@H]([C@H](OC(=O)c3ccccc3)[C@]3(O)C[C@H](OC(=O)[C@H](O)[C@@H](NC(=O)c4ccccc4)c4ccccc4)C(C)=C1C3(C)C)[C@]1(OC(C)=O)CO[C@@H]1C[C@@H]2O [Paclitaxel]
Paclitaxel 16 mg/kg i.p. once a day for 5 days
  tumor regression (in words): caused tumor regression
Day 5
  Average daily weight of the tumor: 3906 mg
Day 9
  Average daily weight of the tumor: 54.2 mg
Day 16
  Average daily weight of the tumor: 77.3 mg
Day 19
  Average daily weight of the tumor: 79.4 mg
Day 23
  Average daily weight of the tumor: 108.0 mg
Day 26
  Average daily weight of the tumor: 123.8 mg
Day 29
  Average daily weight of the tumor: 149.5 mg
Day 32
  Average daily weight of the tumor: 188.8 mg
Day 36
  Average daily weight of the tumor: 220.3 mg
Day 39
  Average daily weight of the tumor: 244.8 mg
Day 43
  Average daily weight of the tumor: 299.6 mg
Day 46
  Average daily weight of the tumor: 376.3 mg
